A short description of series [1]: Phase 1 fixed-sequence study, digoxin with sotorasib. Format: in vivo, human.
Experimental: Blood samples for digoxin PK were collected predose and up to 144 hours post-digoxin dose. Samples were measured using validated high-performance liquid chromatography tandem mass spectrometry methods.
A short description of series [2]: Phase 1 fixed-sequence study, sotorasib with omeprazole under fasted conditions. Format: in vivo, human.
Series [3] is described as follows: Phase 1 fixed-sequence crossover study, sotorasib with famotidine or omeprazole under fed conditions. The following applies: for decrease of sotorasib AUC / decrease of sotorasib Cmax: fed conditions. The series is classed as in vivo, human. Here is the method: Safety and tolerability monitoring was performed throughout the study.
A total of […] healthy subjects (1 woman and 13 men) were enrolled in the study. Thirteen out of the 14 subjects received all treatments and completed the study.

A short description of series [4]: Phase 1 fixed-sequence study, sotorasib with rifampin. The series is classed as in vivo, human.
In series [5] the test system is extracellular signal-regulated kinase (ERK). The following applies: preclinical studies; cited from earlier work.
A short description of series [6]: Phase 1 fixed-sequence study, midazolam with sotorasib. The following applies: 2 mg midazolam coadministered with 960 mg sotorasib after 14 days of daily sotorasib vs midazolam alone, 5 subjects.
Where [7] appears, read: coadministration with a single dose of sotorasib vs digoxin alone.
The mark [8] stands for this setting: with sotorasib vs digoxin alone.
Setting [9] is: coadministration with omeprazole vs sotorasib alone, fasted state.
Setting [10] is: famotidine 10 hours prior to and 2 hours after a single dose of sotorasib.
Where [11] appears, read: repeat doses of omeprazole with a single dose of sotorasib.

As to `C[C@H]1O[C@@H](O[C@H]2[C@@H](O)C[C@H](O[C@H]3[C@@H](O)C[C@H](O[C@H]4CC[C@@]5(C)[C@H](CC[C@@H]6[C@@H]5C[C@@H](O)[C@]5(C)[C@@H](C7=CC(=O)OC7)CC[C@]65O)C4)O[C@@H]3C)O[C@@H]2C)C[C@H](O)[C@@H]1O` [digoxin], in series [1] (setting [7]), the “increase of digoxin AUCinf” value is recorded as “approximately 21%” and the “increase of digoxin Cmax” value is on record as around 91%. In addition, in series [1] (single doses of 0.5 mg digoxin alone or coadministered with 960 mg sotorasib), the safety and tolerability result was “safe and well tolerated”. Moreover, in series [1] (setting [8]), the “Digoxin mean terminal half-life (t1/2), coadministration compared to alone” value is listed as “similar” and the “Digoxin median time to maximal plasma concentration (tmax), coadministration compared to alone” value is “similar”.
Turning to `C=CC(=O)N1CCN(c2nc(=O)n(-c3c(C)ccnc3C(C)C)c3nc(-c4c(O)cccc4F)c(F)cc23)[C@@H](C)C1` (atropisomer, axis not shown) [sotorasib, 6-fluoro-7-(2-fluoro-6-hydroxyphenyl)-(1M)-1-[4-methyl-2-(propan-2-yl)pyridin-3-yl]-4-[(2S)-2-methyl-4-(prop-2-enoyl)piperazin-1-yl]pyrido[2,3-d]pyrimidin-2(1H)-one], the safety and tolerability result in series [2] (coadministered with 40 mg omeprazole or administered alone, healthy subjects) is “safe and well tolerated”; in series [3] (960 mg sotorasib with single dose 40 mg famotidine and after multiple daily 40 mg omeprazole, fed, healthy subjects) it was “safe and well tolerated”; in series [4] (coadministered with 600 mg rifampin or administered alone, healthy subjects), “safe and well tolerated”. Besides, the “decrease of sotorasib AUCinf” value in series [2] (setting [9]) worked out at 42%; in series [4] (multiple doses of rifampin) it was 51%. In addition, the “decrease of sotorasib Cmax” value in series [2] (setting [9]) was found to be 57%; in series [3] (setting [10]), 35%; in series [3] (setting [11]), 65%; in series [4] (multiple doses of rifampin), 35%. In series [2] (with omeprazole vs sotorasib alone, fasted), the “Mean terminal half-life (t1/2), coadministration compared to alone” value is given as “similar”. Moreover, the “decrease of sotorasib AUC” value in series [3] (setting [10]) is 38%; in series [3] (setting [11]), 57%. The CYP3A4 substrate status entry in series [4] (inferred from multiple doses of rifampin, consistent with in vitro data) is on record as “is a CYP3A4 substrate”. Moreover, the OATP1B1 substrate status result in series [4] (inferred from single dose of rifampin) is given as “not a substrate of OATP1B1”. For the same compound, the “phosphorylation of extracellular signal-regulated kinase (ERK)” value in series [5] is “inhibited nearly all detectable phosphorylation”.
In the case of `Cc1ncc2n1-c1ccc(Cl)cc1C(c1ccccc1F)=NC2` [midazolam], in series [6], the “decrease of midazolam AUV” value is listed as 53% and the “decrease of midazolam Cmax” value stood at 48%.

The values are drawn from patent publication US20250375452A1 (AMGEN INC., priority 2021, published 2025).
